According to ChEMBL document CHEMBL3102725, “Trichodermone, a spiro-cytochalasan with a tetracyclic nucleus (7/5/6/5) skeleton from the plant endophytic fungus Trichoderma gamsii” (J Nat Prod, 2014):

Test system: HeLa
Assay: Cytotoxicity against human HeLa cells by MTT assay
Format: functional, cell-based

CC1=C[C@@H]2/C=C(\C)CC[C@H](O)[C@H](O)/C=C/C(=O)[C@]23C(=O)N[C@@H](CC(C)C)[C@@H]3[C@@H]1C [ASPOCHALASIN D]
IC50: 5.72 µM

CC(=O)O[C@H]1C(=O)[C@@]2(C)[C@H]([C@H](OC(=O)c3ccccc3)[C@]3(O)C[C@H](OC(=O)[C@H](O)[C@@H](NC(=O)c4ccccc4)c4ccccc4)C(C)=C1C3(C)C)[C@]1(OC(C)=O)CO[C@@H]1C[C@@H]2O [PACLITAXEL]
IC50: 0.0025 µM
